According to US20060074049A1, “Use of heparinoids for treatment and prevention of dementia” (priority 2004, published 2006):

Assays:
[1] = system: p21 and p27; experiment: p21 and p27 expression in NPC by immunohistochemistry; assay type: cell-based, human
Procedure: For p21 and p27 detection, NPC were grown with recombinant coat proteins for 24 hours. Cells were fixed and monoclonal antibodies to p21 or p27 (Pharmingen) were added. A secondary antibody conjugated to Cy3 was used for detection.
NCP were incubated with 800 pM recombinant coat proteins, and expression of p21 and p27 was analyzed using immunohistochemistry.

[2] = system: ERK; experiment: ERK phosphorylation in NPC by flow cytometry; assay type: cell-based, human
Procedure: Signaling: Isolated NPC were incubated with coat proteins for 10 minutes, placed on ice, fixed, permeabilized with saponin, and stained with fluorescein isothiocyanate-(FITC-) conjugated phosphospecific monoclonal antibodies to ERK (Santa Cruz Biotechnology, Santa Cruz, Calif.). Cells were then analyzed by flow cytometry. Activity of PP2A was inhibited by incubation with okadaic acid (Calbiochem, San Diego, Calif.) at 2.5 μM for 1 hour prior to the addition of coat proteins. Experiments were performed at least twice, and determinations were performed in triplicate.
Proliferation of NPC is increased by signals that increase ERK phosphorylation (Learish et al. (2000) Develop. Brain Res. 122:97-109). […] NPC were incubated with a panel of HIV coat proteins and assayed to determine the fraction of cells with phosphorylated ERK. The CM235 and IIIb coat proteins inhibited ERK phosphorylation by 34% and 77% respectively (p<0.05 for both; FIGS. 2A and 2B). […] Thus, HIV coat proteins are able to activate a cellular phosphatase by signaling through chemokine receptors and reduce ERK phosphorylation, leading to reduced NPC proliferation.

[3] = system: human NPC; experiment: BrdU incorporation into NPC neurospheres by flow cytometry; assay type: cell-based
Description: FIG. 1 is a graph showing the number of NPC colonies displaying outgrowth of cells with neuronal morphology after treatment with coat proteins from the HIV strains 93TH975, CM235 and IIIb. The mean+/−standard error is shown. PTX=pertussis toxin, Anti V3=monoclonal antibody to the V3 loop region of gp120. FIG. 1B is a series of graphs showing the level of bromodeoxyuridine (BrdU) incorporation into NPC neurospheres treated with coat proteins from the HIV strains 93TH975, CM235 and IIIb. Shaded area=control cells, solid line=treated cells.
To quantitate the ability of the coat proteins to cause cells to become quiescent, the number of attached, differentiated colonies was counted. […] In contrast, the 93TH975 coat protein had no effect. In order to confirm that cell proliferation was indeed inhibited by the coat proteins, cultures of NPC were labeled with BrdU, and BrdU incorporation was measured by flow cytometry.

[4] = system: human NPC; experiment: Plating assay: NPC colony formation / quiescence; assay type: cell-based
Procedure: Cells and Materials: Normal human NPC were obtained from Clonetics Corp (San Diego, Calif.), and grown in neural progenitor maintenance medium (Clonetics) with human recombinant basic fibroblast growth factor, epidermal growth factor, neural survival factors and antibiotics. These cells were derived as described previously (Svendsen (1998) J. Neurosci. Meth. 85:141-152).
Plating Assay: On day 0, HIV coat proteins at a concentration of 800 pM, or CSF at a concentration of 2% was added to cultures of NPC. Each protein or CSF sample was tested in triplicate. Cultures were incubated for seven days, and then cells were plated onto 24 well polyethylene-imine coated plates. The number of cell colonies having more than 20 cells with typical neuronal morphology was counted for each well after 7 days in culture. Determinations of colony inhibition for all proteins and CSF samples were done on each of three different lots of NPC. Each lot was passaged 1-3 times before testing, with no differences seen between this number of passages.
The ability of HIV coat proteins to induce quiescence in human NPC was tested using NPC in the form of neurospheres. Typically, neurospheres with quiescent cells fail to attach and differentiate, while neurospheres containing proliferating cells will attach and differentiate into neurons and astrocytes. To determine whether only those coat proteins that signal through either the CXCR4 receptor or the […] receptor would induce quiescence of NPC, purified recombinant coat proteins from several different strains of HIV were tested. These included the R5 strain CM235, the X4 strain IIIb, and the clade E/A recombinant R5 strain 93TH975 (Gao et al. (1996) J. Virol. 70:1651-1667). […] The number of colonies containing more than 20 cells with typical neuronal morphology was counted after 7 days in culture. […] None of the coat proteins induced cell death in NPC, as determined by trypan blue staining (>95% viability in all coat-protein treated cultures). […]

[5] = system: NPC in human hippocampal slices; experiment: Hippocampal slice cultures, BrdU positive NPC; assay type: cell-based; settings: coat protein 1 nM; p<0.001
Procedure: Hippocampal slice cultures: Discarded hippocampal tissue was obtained from patients undergoing corrective surgery for seizures as previously described (Roy et al. (2000) Nat. Med. 6:271-277; and Pincus et al. (1998) Neurosurg. 42:858-868). Tissue was obtained within 1 hour of removal and cultured as described (Stoppini et al. (1991) J. Neurosci, Meth. 37:173-182). Briefly, tissue was sliced to 200 μm thickness using a Brendel-Vitron tissue slicer (Vitron, Inc., Tucson, Ariz.). Slices were placed in a Transwell insert (Costar, Corning, N.Y.) and cultured in neural progenitor maintenance medium (NPMM) with or without chemokines (500 ng/ml), HIV coat proteins (1 nM) or CSF (2%) added on day 0. Each sample was tested in triplicate. The entire experiment was performed at least twice with identical results. Slices were labeled with BrdU on day 5 of culture, and harvested for immunohistochemistry on day 7 by freezing slices in OCT. Five-micron sections were made, and BrdU incorporation was detected using a BrdU in situ kit (Pharmingen, San Diego, Calif.). For dual staining of BrdU and Musashil, a polyclonal antibody to Musashil (Chemicon International, Temecula, Calif.) was used at a dilution of 1:10. Apoptotic cells were detected using a TUNEL assay (Oncogene, Boston, Mass.). […]

[6] = system: human neurospheres (NPC); experiment: Block of IIIb coat protein effect on NPC proliferation by recombinant apolipoproteins; assay type: cell-based; settings: 20 nM recombinant apolipoprotein
Procedure: FIG. 6 is a graph showing the number of BrdU labeled NPC in samples treated with recombinant HIV gp120 from the IIIb strain, which was pre-incubated with or without recombinant ApoE3 and ApoE4.
A risk factor for the development of HIV dementia is homozygosity for the apolipoprotein E4 genotype (Corder et al. (1998) Nat. Med. 4:1182-1184). In Herpes simplex virus infection, it has been speculated that apo E proteins compete with HSV for binding to HS, and that apo E4 cannot compete as efficiently as apo E3 (Itzhaki et al. (1998) Nat. Med. 4:1344). To determine whether apolipoproteins might compete with HIV coat proteins for binding to cell surface HS on NPC, human neurospheres were incubated with the IIIb coat protein, and the ability of recombinant apolipoproteins to block the inhibitory effect of the coat protein on NPC proliferation was tested. […] Thus, apolipoproteins compete with HIV coat proteins for cell surface binding.

Molecule: c1cc(CN2CCCNCCNCCCNCC2)ccc1CN1CCCNCCNCCCNCC1 [AMD3100, reference compound]
- effect on induction of p21 and p27 by the IIIb coat protein ([1]; with IIIb coat protein): blocked

Molecule: C=C1[C@@H](O)[C@@H]2O[C@]3(CC[C@H](/C=C/[C@@H](C)[C@@H]4CC(C)=C[C@@]5(O[C@H](C[C@@](C)(O)C(=O)O)CC[C@H]5O)O4)O3)CC[C@H]2O[C@@H]1[C@@H](O)C[C@H](C)[C@H]1O[C@@]2(CCCCO2)CC[C@H]1C [okadaic acid, reference compound]
- effect on inhibition of ERK phosphorylation induced by CM235 and IIIb coat proteins ([2]; 2.5 μM for 1 hour prior to coat proteins): blocked the inhibition of ERK phosphorylation

Molecule: IIIb: purified recombinant HIV coat protein (gp120) of the X4 strain IIIb
- BrdU incorporation into NPC, tested 7 days after addition of coat proteins ([3]; 7 days after addition): incorporation similar to controls
- BrdU incorporation into NPC compared with controls ([3]; coat protein treated NPC): less BrdU incorporation
- expression of p21 and p27 in NPC ([1]; 800 pM recombinant coat protein): induced expression of p21 and p27
- induction of quiescence / effect on attached differentiated NPC colonies (in words) ([4]; coat protein 800 pM for 7 days): caused NPC to enter a quiescent state
- reduction of the number of differentiated NPC colonies ([4]; coat protein 800 pM for 7 days, colonies counted after 7 days on coated plates, p<0.001): 74%
- reduction of proliferation of NPC (BrdU positive cells) in hippocampal slices [5]: 70%
- reduction in fraction of NPC with phosphorylated ERK ([2]; NPC incubated with coat protein 10 minutes, p<0.05 for CM235 and IIIb, 93TH975 non-significant): 77%

Molecule: apo E3: recombinant apolipoprotein E3
- block of IIIb coat protein inhibition of NPC proliferation [6]: prevented the IIIb coat protein from inhibiting NPC proliferation

Molecule: apo E4: recombinant apolipoprotein E4
- block of IIIb coat protein inhibition of NPC proliferation [6]: did not

Molecule: pertussis toxin [reference compound]
- effect on the inhibitory effects of CM235 and IIIb coat proteins on NPC ([4]; added to NPC cultures in addition to coat proteins): eliminated
